# Measurements published in US12643880B2, “Heterobifunctional molecules as TEAD inhibitors” (Genentech, Inc., priority 2020, dated 2026).
# Experiments:
# Assay type in all cases: binding
# Conditions in all cases: His-tagged TEAD protein, biotinylated lipid pocket probe
# TEAD3 = TEAD3 (Homo sapiens, UniProt Q99594); assay: TEAD lipid pocket TR-FRET (Lipid HTRF) competition assay, TEAD3
# Method: (§1) His-tagged TEAD proteins are pre-incubated with TEAD project compounds for 30 minutes at room temperature. Biotinylated lipid pocket probes are then added to the TEAD/Compound mixture and incubated for 60 minutes at room temperature. The lipid pocket probe competes with the test compound for the TEAD lipid pocket until equilibrium is reached. After 60 minutes, Europium labelled anti-His (Perkin Elmer #ADO 110) and XL665 labelled streptavidin (CIS Bio 610SAXAC) are added to the TEAD/test compound/lipid pocket mixture and incubated for 30 minutes. TR-FRET values are then measured using an EnVision multi-label plate reader (Perkin Elmer Cat #2104-1A.) If the lipid pocket probe binds to TEAD as expected, a TR-FRET signal results from the proximity of Tani-His Eu and XL665. If a TEAD lipid pocket binder such as binds and displaces the lipid pocket probe, the disruption of the TEAD:probe interaction results in a decrease in TR-FRET signal. The potency of compounds as TEAD lipid pocket binders is determined by IC50 value generated using a non-linear 4 parameter curve fit. This assay format enables more sensitive determinations of lipid pocket affinity than the aforementioned TEAD lipid pocket FP assay due to the decreased concentration of TEAD protein required for the TR-FRET assay format.
# TEAD4 = TEAD4 (Homo sapiens, UniProt Q15561); assay: TEAD lipid pocket TR-FRET (Lipid HTRF) competition assay, TEAD4
# Method: as §1
# TEAD1 = TEAD1 (Homo sapiens, UniProt P28347); assay: TEAD lipid pocket TR-FRET (Lipid HTRF) competition assay, TEAD1
# Method: as §1
# TEAD2 = TEAD2 (Homo sapiens, UniProt Q15562); assay: TEAD lipid pocket TR-FRET (Lipid HTRF) competition assay, TEAD2
# Method: as §1
# TEAD3, sequence (Q99594 whole entry, species assumed): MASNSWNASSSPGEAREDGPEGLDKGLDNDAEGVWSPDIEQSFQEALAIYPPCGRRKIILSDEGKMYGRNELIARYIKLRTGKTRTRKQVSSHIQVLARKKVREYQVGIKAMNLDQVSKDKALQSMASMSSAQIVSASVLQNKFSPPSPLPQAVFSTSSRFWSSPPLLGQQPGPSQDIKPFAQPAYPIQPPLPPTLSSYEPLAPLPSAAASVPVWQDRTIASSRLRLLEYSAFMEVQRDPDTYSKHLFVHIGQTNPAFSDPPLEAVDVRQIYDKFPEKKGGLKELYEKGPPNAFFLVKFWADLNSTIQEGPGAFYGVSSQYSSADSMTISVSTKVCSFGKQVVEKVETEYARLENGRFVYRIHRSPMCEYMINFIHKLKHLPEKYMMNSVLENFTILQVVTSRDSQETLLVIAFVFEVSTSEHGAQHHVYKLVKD
# TEAD2, sequence (Q15562 whole entry, species assumed): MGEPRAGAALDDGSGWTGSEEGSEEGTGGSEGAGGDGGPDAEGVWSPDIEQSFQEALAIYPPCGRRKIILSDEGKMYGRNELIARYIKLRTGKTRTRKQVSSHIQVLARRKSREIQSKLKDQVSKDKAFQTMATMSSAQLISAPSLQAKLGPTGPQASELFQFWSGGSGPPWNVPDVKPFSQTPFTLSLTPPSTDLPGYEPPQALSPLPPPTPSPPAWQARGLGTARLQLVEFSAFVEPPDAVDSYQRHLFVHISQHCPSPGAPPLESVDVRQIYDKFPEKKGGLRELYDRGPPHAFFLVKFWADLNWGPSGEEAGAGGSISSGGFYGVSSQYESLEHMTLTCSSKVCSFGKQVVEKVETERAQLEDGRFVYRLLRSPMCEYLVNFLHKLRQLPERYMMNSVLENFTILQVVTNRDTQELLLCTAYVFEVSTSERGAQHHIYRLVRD
# TEAD1, sequence (P28347 whole entry, species assumed): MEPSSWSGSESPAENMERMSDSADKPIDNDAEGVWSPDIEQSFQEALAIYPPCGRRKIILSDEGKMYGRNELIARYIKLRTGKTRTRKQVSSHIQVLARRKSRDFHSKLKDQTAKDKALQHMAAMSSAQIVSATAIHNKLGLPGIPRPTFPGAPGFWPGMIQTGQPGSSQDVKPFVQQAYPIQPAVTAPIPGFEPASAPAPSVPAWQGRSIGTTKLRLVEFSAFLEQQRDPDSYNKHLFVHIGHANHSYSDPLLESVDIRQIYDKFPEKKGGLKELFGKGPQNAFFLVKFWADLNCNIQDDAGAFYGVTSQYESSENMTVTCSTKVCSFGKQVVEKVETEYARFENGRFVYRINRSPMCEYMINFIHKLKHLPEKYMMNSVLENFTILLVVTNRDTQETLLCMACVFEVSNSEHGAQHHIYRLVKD
# TEAD4, sequence (Q15561 whole entry, species assumed): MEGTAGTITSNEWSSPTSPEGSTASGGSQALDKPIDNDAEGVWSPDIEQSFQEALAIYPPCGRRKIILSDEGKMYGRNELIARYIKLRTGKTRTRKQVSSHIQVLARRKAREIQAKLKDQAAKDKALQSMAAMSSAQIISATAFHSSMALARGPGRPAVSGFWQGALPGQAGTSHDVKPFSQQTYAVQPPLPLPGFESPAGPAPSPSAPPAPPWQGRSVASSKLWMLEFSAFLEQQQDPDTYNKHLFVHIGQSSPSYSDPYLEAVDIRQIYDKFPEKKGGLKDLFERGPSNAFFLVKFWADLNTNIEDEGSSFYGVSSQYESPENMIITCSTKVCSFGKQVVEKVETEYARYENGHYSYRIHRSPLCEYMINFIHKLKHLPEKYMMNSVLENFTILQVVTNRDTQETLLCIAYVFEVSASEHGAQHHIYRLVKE
SMILES,IC50 (TEAD3) [µM],IC50 (TEAD4) [nM],IC50 (TEAD1) [nM],IC50 (TEAD2) [nM]
"COc1cnc(C(=O)NCc2cccc(CC(=O)NCCCCCCC(=O)N[C@H](C(=O)N3C[C@H](O)C[C@H]3C(=O)NCc3ccc(-c4scnc4C)cc3)C(C)(C)C)c2)cc1/C=C/[C@H]1CC[C@H](C(F)(F)F)CC1 [Compound 12, N-(3-(2-((7-(((S)-1-((2S,4R)-4-Hydroxy-2-((4-(4-methylthiazol-5-yl)benzyl)carbamoyl)pyrrolidin-1-yl)-3,3-dimethyl-1-oxobutan-2-yl)amino)-7-oxoheptyl)amino)-2-oxoethyl)benzyl)-5-methoxy-4-((E)-2-(trans-4-(trifluoromethyl)cyclohexyl)vinyl)picolinamide]",5.9,280,1320,690
"COc1cnc(C(=O)NCc2cccc(CC(=O)N(C)CCCCCCOc3ccc4c(c3)C(=O)N(C3CCC(=O)NC3=O)C4=O)c2)cc1/C=C/[C@H]1CC[C@H](C(F)(F)F)CC1 (stereo partly drawn) [Compound 2, N-(3-(2-((6-((2-(2,6-Dioxopiperidin-3-yl)-1,3-dioxoisoindolin-5-yl)oxy)hexyl)(methyl)amino)-2-oxoethyl)benzyl)-5-methoxy-4-((E)-2-(trans-4-(trifluoromethyl)cyclohexyl)vinyl)picolinamide]",18.8,400,5750,1150
"CN[C@@H](C)C(=O)N[C@H](C(=O)N1CCC[C@H]1C(=O)Nc1sc(NC(=O)CCCN(C)C(=O)Cc2cccc(CNC(=O)c3cc(/C=C/[C@H]4CC[C@H](C(F)(F)F)CC4)c(OC)cn3)c2)nc1-c1ccccc1)C1CCCCC1 [Compound 21, N-(3-(2-((4-((5-((S)-1-((S)-2-Cyclohexyl-2-((S)-2-(methylamino)propanamido)acetyl)pyrrolidine-2-carboxamido)-4-phenylthiazol-2-yl)amino)-4-oxobutyl)(methyl)amino)-2-oxoethyl)benzyl)-5-methoxy-4-((E)-2-(trans-4-(trifluoromethyl)cyclohexyl)vinyl)picolinamide]",6.2,430,1300,1000
"COc1cnc(C(=O)NCc2cccc(CC(=O)N(C)CCCOc3ccc4c(c3)C(=O)N(C3CCC(=O)NC3=O)C4=O)c2)cc1/C=C/[C@H]1CC[C@H](C(F)(F)F)CC1 (stereo partly drawn) [Compound 8, N-(3-(2-((3-((2-(2,6-Dioxopiperidin-3-yl)-1,3-dioxoisoindolin-5-yl)oxy)propyl)(methyl)amino)-2-oxoethyl)benzyl)-5-methoxy-4-((E)-2-(trans-4-(trifluoromethyl)cyclohexyl)vinyl)picolinamide]",8.2,180,720,290
"CN[C@@H](C)C(=O)N[C@H](C(=O)N1CCC[C@H]1C(=O)Nc1sc(NC(=O)COCCOCCOCCOCCN(C)C(=O)Cc2cccc(CNC(=O)c3cc(/C=C/[C@H]4CC[C@H](C(F)(F)F)CC4)c(OC)cn3)c2)nc1-c1ccccc1)C1CCCCC1 [Compound 18, N-(3-(17-((5-((S)-1-((S)-2-Cyclohexyl-2-((S)-2-(methylamino)propanamido)acetyl)pyrrolidine-2-carboxamido)-4-phenylthiazol-2-yl)amino)-3-methyl-2,17-dioxo-6,9,12,15-tetraoxa-3-azaheptadecyl)benzyl)-5-methoxy-4-((E)-2-(trans-4-(trifluoromethyl)cyclohexyl)vinyl)picolinamide]",4.8,140,600,490
"COc1cnc(C(=O)NCc2cccc(CC(=O)N(C)CCCCCOc3ccc4c(c3)C(=O)N(C3CCC(=O)NC3=O)C4=O)c2)cc1/C=C/[C@H]1CC[C@H](C(F)(F)F)CC1 (stereo partly drawn) [Compound 10, N-(3-(2-((5-((2-(2,6-Dioxopiperidin-3-yl)-1,3-dioxoisoindolin-5-yl)oxy)pentyl)(methyl)amino)-2-oxoethyl)benzyl)-5-methoxy-4-((E)-2-(trans-4-(trifluoromethyl)cyclohexyl)vinyl)picolinamide]",50,470,18800,4800
"COc1cnc(C(=O)NCc2cccc(CC(=O)N(C)CCOCCOCCOCCOCCOc3ccc4c(c3)C(=O)N(C3CCC(=O)NC3=O)C4=O)c2)cc1/C=C/[C@H]1CC[C@H](C(F)(F)F)CC1 (stereo partly drawn) [Compound 4, N-(3-(17-((2-(2,6-Dioxopiperidin-3-yl)-1,3-dioxoisoindolin-5-yl)oxy)-3-methyl-2-oxo-6,9,12,15-tetraoxa-3-azaheptadecyl)benzyl)-5-methoxy-4-((E)-2-(trans-4-(trifluoromethyl)cyclohexyl)vinyl)picolinamide]",1.83,70,280,200
"COc1cnc(C(=O)NCc2cccc(CC(=O)NCCCCCCCCC(=O)N[C@H](C(=O)N3C[C@H](O)C[C@H]3C(=O)NCc3ccc(-c4scnc4C)cc3)C(C)(C)C)c2)cc1/C=C/[C@H]1CC[C@H](C(F)(F)F)CC1 [Compound 13, N-(3-(2-((9-(((S)-1-((2S,4R)-4-Hydroxy-2-((4-(4-methylthiazol-5-yl)benzyl)carbamoyl)pyrrolidin-1-yl)-3,3-dimethyl-1-oxobutan-2-yl)amino)-9-oxononyl)amino)-2-oxoethyl)benzyl)-5-methoxy-4-((E)-2-(trans-4-(trifluoromethyl)cyclohexyl)vinyl)picolinamide]",4.03,220,980,460
"CN[C@@H](C)C(=O)N[C@H](C(=O)N1CCC[C@H]1C(=O)Nc1sc(NC(=O)COCCOCCOCCOCCOCCN(C)C(=O)Cc2cccc(CNC(=O)c3cc(/C=C/[C@H]4CC[C@H](C(F)(F)F)CC4)c(OC)cn3)c2)nc1-c1ccccc1)C1CCCCC1 [Compound 19, N-(3-(20-((5-((S)-1-((S)-2-Cyclohexyl-2-((S)-2-(methylamino)propanamido)acetyl)pyrrolidine-2-carboxamido)-4-phenylthiazol-2-yl)amino)-3-methyl-2,20-dioxo-6,9,12,15,18-pentaoxa-3-azaicosyl)benzyl)-5-methoxy-4-((E)-2-(trans-4-(trifluoromethyl)cyclohexyl)vinyl)picolinamide]",4.1,140,540,360
"COc1cnc(C(=O)NCc2cccc(CC(=O)NCCOCCOCCOCCOCC(=O)N[C@H](C(=O)N3C[C@H](O)C[C@H]3C(=O)NCc3ccc(-c4scnc4C)cc3)C(C)(C)C)c2)cc1/C=C/[C@H]1CC[C@H](C(F)(F)F)CC1 [Compound 16, N-(3-((S)-19-((2S,4R)-4-Hydroxy-2-((4-(4-methylthiazol-5-yl)benzyl)carbamoyl)pyrrolidine-1-carbonyl)-20,20-dimethyl-2,17-dioxo-6,9,12,15-tetraoxa-3,18-diazahenicosyl)benzyl)-5-methoxy-4-((E)-2-(trans-4-(trifluoromethyl)cyclohexyl)vinyl)picolinamide]",2.57,60,350,160
